This passage reports IC50 and melting point results from patent publication US20100197668A1, “1,2,3,4-TETRAHYDROPYRROLO[1,2-A]PYRAZINE-6-CARBOXAMIDE AND 2,3,4,5-TETRAHYDROPYRROLO[1,2-a][1,4]-DIAZEPINE-7-CARBOXAMIDE DERIVATIVES, PREPARATION AND THERAPEUTIC USE THEREOF” (SANOFI-AVENTIS, priority 2007, published 2010).

Structures can show the parent of a compound that is named as a salt.

Data set [1] concerns the target T1, purified recombinant form of human BACE1 aspartyl protease (Homo sapiens, UniProt P56817).
T1 construct: hexahistidine (C); made in house; host or cells: Drosophila cells
Briefly: in vitro inhibition of β-secretase (BACE1) activity, cleavage of fluorogenic peptide substrate FS1 (FRET). To be noted: recombinant human BACE1 10 nM, substrate FS1 5 μM, sodium acetate buffer pH 4.5, 37° C., 45 minutes; read-out: IC50 (concentration of product giving 50% inhibition of the enzyme activity). Type of data set: biochemical. From the text:
The compounds according to the invention have been the subject of pharmacological tests enabling their inhibitory effect with respect to β-secretase activity to be determined.
The tests consisted in measuring the in vitro inhibition of the β-secretase activity by the compounds of the invention.
The β-secretase activity measured corresponds to that of a purified recombinant form of human BACE1 aspartyl protease (the latter comprising a hexahistidine tag at the C-terminal position) produced by expression in Drosophila cells. The purified enzyme is conditioned in TRIS buffer (18 mM) at pH 7.5 containing NaCl (0.45M), MnCl2 (0.9 mM), CaCl2 (0.9 mM), α-D-methylmannoside and 10% glycerol, and stored at −80° C. until use.
The BACE1 activity is measured from the cleavage of a fluorogenic peptide substrate, known as FS1, described originally by Ermolieff et Coll. (2000, Biochemistry, 39, 12450-12456), and based on the principle of fluorescence resonance energy transfer (FRET); the cleavage of the FS1 peptide is measured from the increase of the fluorescent signal emitted by the EDANS (or 5-[(2-aminoethyl)amino]-naphthalene-2-sulfonic acid) group.
The test is carried out in a 96-well microplate in order to determine the inhibition of the enzyme activity by the products of the invention. The substrate FS1 is solubilized to a concentration of 1 mM in 100% dimethylsulfoxide (DMSO) and stored at −20° C. until use. The dilutions of the products to be tested are prepared in DMSO starting from a 10 mM stock solution. The products of the invention, at final concentrations of 0.003 to 10 μM are incubated at 37° C. with the substrate FS1 (final concentration of 5 μM) and the purified enzyme (final concentration of 10 nM) in the sodium acetate buffer (0.1 M), pH 4.5 containing 0.02% of CHAPS detergent and […] for 45 minutes. […] When the incubation is finished, the fluorescence is measured in a spectrofluorimeter, at the excitation wavelength of 355 nm and emission wavelength of 509 nm. For each product concentration tested, the fluorescent signal is compared to the maximum signal obtained when the substrate FS1 is only incubated with the enzyme.
The inhibitory activity of the products of the invention is then evaluated by the measurement of the IC50 (concentration of product giving 50% inhibition of the enzyme activity) using a non-linear regression analysis (computer application software XLfit, IDBS™).

T1 sequence (P56817 46-501): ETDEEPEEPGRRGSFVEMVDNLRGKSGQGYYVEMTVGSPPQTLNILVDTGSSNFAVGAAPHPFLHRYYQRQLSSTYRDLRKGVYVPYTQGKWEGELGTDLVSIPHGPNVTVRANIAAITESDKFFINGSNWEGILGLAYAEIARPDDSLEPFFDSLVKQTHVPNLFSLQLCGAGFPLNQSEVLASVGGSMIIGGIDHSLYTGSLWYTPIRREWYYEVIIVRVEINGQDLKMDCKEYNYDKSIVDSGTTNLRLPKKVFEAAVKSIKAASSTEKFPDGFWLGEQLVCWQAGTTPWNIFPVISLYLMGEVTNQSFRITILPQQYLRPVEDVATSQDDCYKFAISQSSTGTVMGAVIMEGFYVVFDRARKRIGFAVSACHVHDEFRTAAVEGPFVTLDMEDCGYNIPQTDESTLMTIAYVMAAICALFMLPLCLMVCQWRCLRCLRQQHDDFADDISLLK

With `CCCC(CCC)N1CCCn2c(C(=O)N[C@@H](Cc3ccccc3)[C@H](O)CNCc3cccc(C(F)(F)F)c3)ccc2C1=O` [Compound 11, N-[(1S,2R)-1-Benzyl-2-hydroxy-3-{[3-(trifluoromethyl)benzyl]amino}propyl]-1-oxo-2-(1-propylbutyl)-2,3,4,5-tetrahydro-1H-pyrrolo[1,2-a][1,4]diazepine-7-carboxamide hydrochloride (1:1)], in data set [1], the IC50 is 1400 nM. Compound `COC(=O)c1cc(C(=O)N[C@@H](Cc2ccccc2)[C@H](O)CNC2(c3cccc(C(F)(F)F)c3)CC2)n2c1CN(C(=O)OC(C)(C)C)CC2` [Compound 1, 2-tert-Butyl 8-methyl 6-{[(1S,2R)-1-benzyl-2-hydroxy-3-({1-[3-(trifluoromethyl)phenyl]cyclopropyl}amino)propyl]carbamoyl}-3,4-dihydropyrrolo[1,2-a]pyrazine-2,8(1H)-dicarboxylate] yielded a melting point of 136 °C.

`CCCC(CCC)N1CCn2c(C(=O)N[C@@H](Cc3ccccc3)[C@H](O)CNC3(c4cccc(C(F)(F)F)c4)CC3)ccc2C1=O.Cl` showed a melting point of 176 °C. On to `CCN(CC)C(=O)c1cc(C(=O)N[C@@H](Cc2ccccc2)[C@H](O)CNC2(c3cccc(C(F)(F)F)c3)CC2)n2c1CNCC2` [Compound 5, 6-{(1S,2R)-1-benzyl-2-hydroxy-3-[1-(3-trifluoromethylphenyl)cyclopropylamino]propyl}-N-8,N-8-diethyl-1,2,3,4-tetrahydropyrrolo[1,2-a]pyrazine-6,8-dicarboxamide], for which the IC50 in data set [1] was 310 nM. As to `CCCC(CCC)N1CCn2c(C(=O)N[C@@H](Cc3ccccc3)[C@H](O)CNCc3cccc(C(F)(F)F)c3)ccc2C1=O.Cl` [Compound 9, N-[(1S,2R)-1-Benzyl-2-hydroxy-3-{[3-(trifluoromethyl)benzyl]amino}propyl]-1-oxo-2-(1-propylbutyl)-1,2,3,4-tetrahydropyrrolo[1,2-a]pyrazine-6-carboxamide hydrochloride (1:1)], the melting point was 168 °C. Also, in data set [1], the IC50 is 370 nM. For `CCCC(CCC)N1CCn2c(C(=O)N[C@@H](Cc3cc(F)cc(F)c3)[C@H](O)CNC3(c4cccc(C(F)(F)F)c4)CC3)ccc2C1=O.Cl` [Compound 7, N-[(1S,2R)-1-(3,5-Difluorobenzyl)-2-hydroxy-3-({1-[3-(trifluoromethyl)-phenyl]cyclopropyl}amino)propyl]-1-oxo-2-(1-propylbutyl)-1,2,3,4-tetrahydropyrrolo[1,2-a]pyrazine-6-carboxamide hydrochloride (1:1)], in that order: 183 °C and 480 nM. `CCN(CC)C(=O)c1cc(C(=O)N[C@@H](Cc2ccccc2)[C@H](O)CNC2(c3cccc(C(F)(F)F)c3)CC2)n2c1CNCC2` (as salt: HCl) [Compound 5, 6-{(1S,2R)-1-benzyl-2-hydroxy-3-[1-(3-trifluoromethylphenyl)cyclopropylamino]propyl}-N-8,N-8-diethyl-1,2,3,4-tetrahydropyrrolo[1,2-a]pyrazine-6,8-dicarboxamide]: the melting point was determined as 143 °C. Still for that read-out and setting: next, `CC(C)(C)OC(=O)N1CCn2c(C(=O)N[C@@H](Cc3ccccc3)[C@H](O)CNC3(c4cccc(C(F)(F)F)c4)CC3)cc(C(=O)O)c2C1` [Compound 2, 6-{[(1S,2R)-1-Benzyl-2-hydroxy-3-({1-[3-(trifluoromethyl)phenyl]cyclopropyl}amino)propyl]carbamoyl}-2-(tert-butoxycarbonyl)-1,2,3,4-tetrahydropyrrolo[1,2-a]pyrazine-8-carboxylic acid]: 134.5 °C.

As usually defined, the melting point is the temperature, or range, at which the solid turns liquid.
